Laboratory results as given in patent publication US20240124520A1, “N-ACYLATED HISTIDINE DIPEPTIDES AS ANTICANCER AGENTS” (THE BOARD OF TRUSTEES OF THE LELAND STANFORD JUNIOR …, priority 2019, published 2024).
Non-standard residues stand in square brackets, D forms with d. Residues, ends and D or L forms follow the SMILES beside them. *: point of attachment. Palmitoyl = CCCCCCCCCCCCCCCC(=O)*

Columns and labels:
Type in all cases: cell-based
[1] = test system: OVCAR-3 human ovarian cancer cells; experiment: Cell Titer Blue in vitro cell viability assay, OVCAR-3; details: 72 h, OVCAR-3 (RPMI), 3 days at 37° C.
Protocol: (§1) FIG. 14: Dose Response curve for MBC0179 with OVCAR-3 cells. Compound MBC0179 was incubated with OVCAR-3 human ovarian cancer cells at the indicated concentrations for 3 days at 37° C. prior to Cell Titer Blue fluorescence-based cell viability assay. Normalized cell viability data, expressed as a percentage, are averaged from three biological replicates and standard error represented by error bars for each averaged data point (empty squares). The compound concentrations are represented on log scale on the x-axis in μM units. Data were analyzed using free software called DrFit, as described in Nature Scientific Reports, Article number: 14701, (2015). […]
(§2) The Cell Titer Blue reagent (available from Promega, Inc.) is a buffered solution containing resazurin, a compound that is converted to resorufin, a detectable fluorescent product, by metabolically active cells. The fluorescence intensity of resorufin product therefore serves as a proportional measure of the number of viable cells, permitting changes in cell viability within cancer or other cell lines to be monitored in response to the addition of cytotoxic or cytostatic agents. […] Metastases to the lungs may be conveniently quantified by a well-established clonogenic assay. […]

[2] = test system: hTERT-HME1 healthy human breast epithelial cells; experiment: Cell Titer Blue in vitro cell viability assay, hTERT-HME1; details: 72 h, hTERT-HME1 (MEGM), 3 days at 37° C.
Protocol: as §1, with “6:” for “14:”, “hTERT-HME1 cells in MEGM Media.” for “OVCAR-3 cells.”, “[…] healthy” for “OVCAR-3”, “breast epithelial” for “ovarian cancer”, “cells in growth factor-rich MEGM media” for “cells”
as §2

[3] = test system: MCF7, estrogen receptor positive, human breast cancer cells; experiment: Cell Titer Blue in vitro cell viability assay, MCF7; details: 72 h, MCF7 (DMEM), 3 days at 37° C.
Protocol: as §1, with “FIG. 8: Dose Response” for “FIG. 14: Dose Response”, “MBC0179 with MCF7 cells. Compound” for “MBC0179 with OVCAR-3 cells. Compound”, “incubated with MCF7, estrogen receptor positive, human breast” for “incubated with OVCAR-3 human ovarian”, “positive, human breast cancer cells” for “OVCAR-3 human ovarian cancer cells”
as §2

[4] = test system: HEPG2 human liver carcinoma cells; experiment: Cell Titer Blue in vitro cell viability assay, HEPG2; details: 72 h, HEPG2 (DMEM), 3 days at 37° C.
Protocol: as §1, with “12:” for “14:”, “HEPG2” for “OVCAR-3”, “liver carcinoma” for “ovarian cancer”
as §2

CCCCCCCCCCCCCCCC(=O)N[C@H](Cc1c[nH]cn1)C(=O)N[C@@H](C(=O)OCC)C(C)C [Compound 5, N-[N-(1-oxohexadecyl)-D-histidyl]-D-valine ethyl ester] (Palmitoyl-[dH]-[dV]-OEt)
IC50 [1]: 9.22 µM | IC50 [2]: 270 µM | IC50 [3]: 355 µM | IC50 [4]: 24.9 µM
